According to patent US4885310A, “Anti-fungal methods and agent” (Kern; Gerald N., priority 1985, dated 1989):

What was measured:
mycoses = conditions: cited from earlier work
[1] = use as food additive and stool softening agent; cited from earlier work
HeLa [2] = experiment: Cytotoxicity of docusate sodium in solutions free of serum, HeLa; type: cell-based, human; design: key: 0: Cells had normal morphology; 4+: > 90% of cells showed CTE; conditions: 24 h, 37° C.
Protocol: (§1) The cell lines used to evaluate cytotoxicity of docusate sodium were MA-104 derived from monkey kidneys, HeLa derived from human uterine carcinoma and primary fibroblasts from human foreskin. The cells were grown to confluency in 60×15 mm dishes. The cell monolayers were washed free of growth medium and 5 ml of serum-less growth medium containing docusate sodium at various concentrations was added. The cultures were incubated 24 hours at 37° C. and the cells then examined microscopically for cytotoxic effects (CTE). Controls were done in the same manner except that they were not exposed to docusate sodium.
(§2) Table 1 lists the cytotoxicity of docusate sodium with regard to selected cell lines in cell culture.

HeLa [3] = experiment: Cytotoxicity of docusate sodium in solutions containing serum, HeLa; type: cell-based, human; design: key: 0: Cells have normal morphology; 4+: > 90% of cells showed CTE.; ±c: less than 10% of cells showed CTE; conditions: 2% fetal calf serum, 24 h
Protocol: as §1
(§3) The same procedure that was used for Example 8 was used for this example except that the medium used for growing the cells contained 2% by volume fetal calf serum.
(§4) Table 2 lists the cytotoxic effect of docusate sodium at various concentrations in selected cell lines in the cell cultures of this Example.

MA-104 [4] = experiment: Cytotoxicity of docusate sodium in solutions containing serum, MA-104; type: cell-based, monkey; design: key to cytotoxic effect (CTE): 0: Cells have normal morphology; 4+: > 90% of cells showed CTE.; ±c: less than 10% of cells showed CTE; conditions: for cytotoxic effect (CTE): 24 h, MA-104
Protocol: as §1, §3, §4

Candida albicans = experiment: Inhibition of the growth of Candida albicans in broth culture; type: cell-based; conditions: TSB, 30° C.
Protocol: Candida albicans is a yeast and is the causative agent of thrush in humans and is a cause of vaginal infections, urinary tract infections, and infections at other body sites. The growth inhibition effects of docusate sodium on C. albicans are determined in broth culture using trypticase soy broth (TSB) which is a medium which supports growth of a wide variety of microorganisms. TSB was sterilized by autoclaving and filter sterilized docusate sodium in distilled water was added to the sterile TSB at the concentrations shown in Table 3. The cultures were inoculated and incubated at 30° C. for 72 hours. Growth in the cultures was checked at 24 hour intervals.

Penicillium = experiment: Inhibition of fungal growth on potato dextrose agar plates, Penicillium; type: cell-based
Protocol: (§5) FIG. 1 is a photograph of fungal cultures of Scopulariopsis, Penicillium and Aspergillus treated with various concentrations of docusate sodium from 0 concentration (the control) to 2.0 mg/ml and incubated for five days at room temperature. The nature of fungal growth required that a different experimental approach from that of Example 10 be used to determine the growth inhibition effects of docusate sodium on fungi. For these experiments potato dextrose agar plates containing different concentrations of docusate sodium were inoculated in the center of the agar with Scopulariopsis, Penicillium and Aspergillus. The cultures were then sealed with […] brand film and incubated at room temperature for five days. Since growth could not be measured by absorbance visual comparisons were made. […] Similar tests were conducted with Mucor.

[5] = cited from earlier work
[6] = test system: primary fibroblasts from human foreskin; experiment: Cytotoxicity of docusate sodium in solutions free of serum, foreskin fibroblasts; type: cell-based; design: key: 0: Cells had normal morphology; 4+: > 90% of cells showed CTE; conditions: 24 h, 37° C.
Protocol: as §1, §2

Scopulariopsis = experiment: Inhibition of fungal growth on potato dextrose agar plates, Scopulariopsis; type: cell-based
Protocol: as §5

Aspergillus = experiment: Inhibition of fungal growth on potato dextrose agar plates, Aspergillus; type: cell-based
Protocol: as §5

[7] = test system: foreskin fibroblast cells; experiment: Cytotoxicity of docusate sodium in solutions containing serum, foreskin fibroblasts; type: cell-based, human; design: key: 0: Cells have normal morphology; 4+: > 90% of cells showed CTE.; ±c: less than 10% of cells showed CTE; conditions: 2% fetal calf serum, 24 h
Protocol: as §1, §3, §4

Mucor = experiment: Inhibition of fungal growth, Mucor; type: cell-based; conditions: all concentrations tested
Protocol: The nature of fungal growth required that a different experimental approach from that of Example 10 be used to determine the growth inhibition effects of docusate sodium on fungi. For these experiments potato dextrose agar plates containing different concentrations of docusate sodium were inoculated in the center of the agar with Scopulariopsis, Penicillium and Aspergillus. The cultures were then sealed with PARAFILM brand film and incubated at room temperature for five days. Since growth could not be measured by absorbance visual comparisons were made. […] The results to date indicate that docusate sodium is fungistatic. […] Similar tests were conducted with Mucor.

MA-104 [8] = experiment: Cytotoxicity of docusate sodium in solutions free of serum, MA-104; type: cell-based, monkey; design: key: 0: Cells had normal morphology; 4+: > 90% of cells showed CTE; conditions: 24 h, 37° C.
Protocol: as §1, §2

Compound: C[C@@H]1[C@H](O)[C@@H](C)/C=C/C=C/C=C/C=C/C=C/C=C/C=C/[C@H](O[C@@H]2O[C@H](C)[C@@H](O)[C@H](N)[C@@H]2O)C[C@@H]2O[C@](O)(C[C@@H](O)C[C@@H](O)[C@H](O)CC[C@@H](O)C[C@@H](O)CC(=O)O[C@H]1C)C[C@H](O)[C@H]2C(=O)O [amphotericin B]
- toxicity (mycoses; in vivo): often exhibits some toxicity
- effectiveness against superficial and cutaneous mycoses (mycoses; superficial and cutaneous mycoses): not effective for the treatment of superficial and cutaneous mycoses
- effectiveness against systemic mycoses (mycoses; systemic mycoses): effective for the treatment of many, but not all, systemic mycoses

Compound: COC1=CC(=O)C[C@@H](C)[C@]12Oc1c(Cl)c(OC)cc(OC)c1C2=O [griseofulvin]
- effectiveness against mycoses (mycoses; requires prolonged administration of weeks or months): effective only for superficial and subcutaneous mycoses

Compound: CCCCC(CC)COC(=O)CC(C(=O)OCC(CC)CCCC)S(=O)(=O)O (centres unmarked) [docusate sodium, 1,4 bis(2-ethylhexyl) sodium sulfosuccinate]
- systemic or local concentration on a cellular level [1]: do not provide a systemic or local concentration of from about 0.01 mg to about 0.2 mg of docusate sodium per ml on a cellular level
- toxicity (CTE) (HeLa [2]; 0.01 mg/ml): 0
- toxicity (CTE) (HeLa [2]; 0.05 mg/ml): 4+ (> 90% of cells showed CTE.)
- toxicity (CTE) (HeLa [2]; 0.1 mg/ml): 4+ (> 90% of cells showed CTE.)
- toxicity (CTE) (HeLa [2]; 0.2 mg/ml): 4+ (> 90% of cells showed CTE.)
- cytotoxic effect (CTE) (HeLa [3]; 0.02 mg/ml): 0
- cytotoxic effect (CTE) (HeLa [3]; 0.03 mg/ml): ±c (less than 10% of cells showed CTE.)
- cytotoxic effect (CTE) (HeLa [3]; 0.04 mg/ml): 4+ (> 90% of cells showed CTE.)
- cytotoxic effect (CTE) (MA-104 [4]; 0.01 mg/ml, 2% fetal calf serum): 0
- cytotoxic effect (CTE) (MA-104 [4]; 0.02 mg/ml, 2% fetal calf serum): 0
- cytotoxic effect (CTE) (MA-104 [4]; 0.03 mg/ml, 2% fetal calf serum): 0
- cytotoxic effect (CTE) (MA-104 [4]; 0.04 mg/ml, 2% fetal calf serum): 0
- effect of serum on cytotoxicity (MA-104 [4]; 2% fetal calf serum vs serum-free, stated for the cells of Table 2): presence of serum reduced the cytotoxicity
- relative sensitivity of MA-104 cells (MA-104 [4]; 2% fetal calf serum, versus HeLa and foreskin fibroblast cells): less sensitive
- Growth recorded as absorbance at 540 nm (Candida albicans; 0.06 mg/ml, 0 h): 0.185
- Growth recorded as absorbance at 540 nm (Candida albicans; 0.06 mg/ml, 24 h): 0.610
- Growth recorded as absorbance at 540 nm (Candida albicans; 0.06 mg/ml, 48 h): 1.10
- Growth recorded as absorbance at 540 nm (Candida albicans; 0.06 mg/ml, 72 h): 0.920
- Growth recorded as absorbance at 540 nm (Candida albicans; 0.12 mg/ml, 0 h): 0.230
- Growth recorded as absorbance at 540 nm (Candida albicans; 0.12 mg/ml, 24 h): 0.440
- Growth recorded as absorbance at 540 nm (Candida albicans; 0.12 mg/ml, 48 h): 0.700
- Growth recorded as absorbance at 540 nm (Candida albicans; 0.12 mg/ml, 72 h): 0.950
- Growth recorded as absorbance at 540 nm (Candida albicans; 0.25 mg/ml, 0 h): 0.220
- Growth recorded as absorbance at 540 nm (Candida albicans; 0.25 mg/ml, 24 h): 0.345
- Growth recorded as absorbance at 540 nm (Candida albicans; 0.25 mg/ml, 48 h): 0.600
- Growth recorded as absorbance at 540 nm (Candida albicans; 0.25 mg/ml, 72 h): 0.720
- Growth recorded as absorbance at 540 nm (Candida albicans; 0.5 mg/ml, 0 h): 0.240
- Growth recorded as absorbance at 540 nm (Candida albicans; 0.5 mg/ml, 24 h): 0.315
- Growth recorded as absorbance at 540 nm (Candida albicans; 0.5 mg/ml, 48 h): 0.420
- Growth recorded as absorbance at 540 nm (Candida albicans; 0.5 mg/ml, 72 h): 0.730
- Growth recorded as absorbance at 540 nm (Candida albicans; 1.0 mg/ml, 0 h): 0.290
- Growth recorded as absorbance at 540 nm (Candida albicans; 1.0 mg/ml, 24 h): 0.310
- Growth recorded as absorbance at 540 nm (Candida albicans; 1.0 mg/ml, 48 h): 0.450
- Growth recorded as absorbance at 540 nm (Candida albicans; 1.0 mg/ml, 72 h): 0.610
- Growth recorded as absorbance at 540 nm (Candida albicans; 2.0 mg/ml, 0 h): 0.320
- Growth recorded as absorbance at 540 nm (Candida albicans; 2.0 mg/ml, 24 h): 0.470
- Growth recorded as absorbance at 540 nm (Candida albicans; 2.0 mg/ml, 48 h): 0.620
- Growth recorded as absorbance at 540 nm (Candida albicans; 2.0 mg/ml, 72 h): 0.780
- relative sensitivity of fungus (Penicillium; Penicillium versus Aspergillus and Scopulariopsis): least sensitive
- growth inhibition (Penicillium; all concentrations up to 2.0 mg/ml, five days, room temperature, Penicillium): growth of fungi was inhibited at all concentrations
- solubility in organic solvents ([5]; organic solvents such as alcohol): freely soluble
- solubility in water ([5]; water): slowly soluble in water to a limited extent
- toxicity (CTE) ([6]; 0.01 mg/ml): 0
- toxicity (CTE) ([6]; 0.05 mg/ml): 4+ (> 90% of cells showed CTE.)
- toxicity (CTE) ([6]; 0.1 mg/ml): 4+ (> 90% of cells showed CTE.)
- toxicity (CTE) ([6]; 0.2 mg/ml): 4+ (> 90% of cells showed CTE.)
- relative sensitivity of fungus (Scopulariopsis; Scopulariopsis versus Penicillium): more sensitive
- growth inhibition (Scopulariopsis; all concentrations up to 2.0 mg/ml, five days, room temperature, Scopulariopsis): growth of fungi was inhibited at all concentrations
- sensitivity of growing tips of fungal mycelia (microscopic examination) (Scopulariopsis; stated for the fungal colonies of FIG. 1): growing tips of the fungal mycelia (filaments) are sensitive
- fungistatic nature of effect (Scopulariopsis; stated for the fungi of FIG. 1): fungistatic
- relative sensitivity of fungus (Aspergillus; Aspergillus versus Penicillium): more sensitive
- growth inhibition (Aspergillus; all concentrations up to 2.0 mg/ml, five days, room temperature, Aspergillus): growth of fungi was inhibited at all concentrations
- cytotoxic effect (CTE) ([7]; 0.01 mg/ml): 0
- cytotoxic effect (CTE) ([7]; 0.02 mg/ml): ±c (less than 10% of cells showed CTE.)
- cytotoxic effect (CTE) ([7]; 0.03 mg/ml): 4+ (> 90% of cells showed CTE.)
- cytotoxic effect (CTE) ([7]; 0.04 mg/ml): 4+ (> 90% of cells showed CTE.)
- growth inhibition (Mucor): growth was inhibited at all concentrations of docusate sodium tested
- toxicity (CTE) (MA-104 [8]; 0.01 mg/ml): 0
- toxicity (CTE) (MA-104 [8]; 0.05 mg/ml): 4+ (> 90% of cells showed CTE.)
- toxicity (CTE) (MA-104 [8]; 0.1 mg/ml): 4+ (> 90% of cells showed CTE.)
- toxicity (CTE) (MA-104 [8]; 0.2 mg/ml): 4+ (> 90% of cells showed CTE.)
